Consider five compounds from ChEMBL document CHEMBL4049444, “Topical Intestinal Aminoimidazole Agonists of G-Protein-Coupled Bile Acid Receptor 1 Promote Glucagon Like Peptide-1 Secretion and Improve Glucose Tolerance” (J Med Chem, 2017).

Data set [1] is described as follows: Half life in C57BL6/J mouse at 20 mg/kg, po by LC-MS/MS analysis. Type of data set: ADME, organism-based. As to conditions: in vivo; call rule not given here.
Data set [2] is described as follows: AUC in C57BL6/J mouse at 20 mg/kg, po by LC-MS/MS analysis. In kind it is ADME, organism-based. The conditions noted are these: in vivo.
Another data set relates to Colon. The data set is described as follows: Drug uptake in C57BL6 mouse colon at 20 mg/kg, po after 8 hrs by LC-MS/MS. In kind it is ADME, organism-based. As to conditions: in vivo.
A short description of data set [3]: Cmax in C57BL6/J mouse gallbladder at 20 mg/kg, po by LC-MS/MS analysis. More on the design: dose 20 mg/kg, route oral. Type of data set: ADME, organism-based, Gall bladder.
For the next data set, the system named is Ileum. Put plainly: Drug uptake in C57BL6 mouse ileum at 20 mg/kg, po after 8 hrs by LC-MS/MS. The conditions noted are these: in vivo. In kind it is ADME, organism-based.
Data set [4] in a line: Apparent permeability from apical to basolateral side in human Caco2 cells assessed as drug recovery at 10 uM after 1 hr by LC-MS/MS analysis. In kind it is ADME, cell-based. The conditions noted are these: Caco-2, read-out: Drug recovery. Background: Caco-2 cells form a polarised layer with tight junctions and transporters.
The nature of data set [5]: Cmax in C57BL6/J mouse liver at 20 mg/kg, po by LC-MS/MS analysis. Type of data set: ADME, organism-based. More on the design: dose 20 mg/kg, route oral.
The nature of data set [6]: Apparent permeability from basolateral to apical side in human Caco2 cells at 10 uM after 1 hr by LC-MS/MS analysis. As to conditions: Caco-2. In kind it is ADME, cell-based.
Another data set is described as follows: in vivo. The conditions noted are these: C57BL6/J, mouse, faeces, po, 20 mg/kg.
Data set [7] is described as follows: Tmax in C57BL6/J mouse at 20 mg/kg, po by LC-MS/MS analysis. As to conditions: in vivo. Type of data set: ADME, organism-based.
Data set [8] is described as follows: 1-octanol/phosphate buffer solution partition coefficient, log D of the compound at pH 7.4 for 2 hrs by LC-MS/MS method. Type of data set: physicochemical.
The nature of a further data set: physchem. The conditions noted are these: PBS/MeOH.
Data set [9] can be described thus: Cmax in C57BL6/J mouse plasma at 20 mg/kg, po by LC-MS/MS analysis. On the set-up: dose 20 mg/kg, route oral. In kind it is ADME, organism-based.
The nature of data set [10]: Apparent permeability from basolateral to apical side in human Caco2 cells assessed as drug recovery at 10 uM after 1 hr by LC-MS/MS analysis. In kind it is ADME, cell-based. As to conditions: Caco-2, read-out: Drug recovery.
Data set [11] in a line: Apparent permeability from apical to basolateral side in human Caco2 cells at 10 uM after 1 hr by LC-MS/MS analysis. In kind it is ADME, cell-based. The conditions noted are these: Caco-2.
Data set [12] can be described thus: Half life in CD-1 mouse liver microsomes at 1 uM in presence of NADPH by LC-MS/MS analysis. Type of data set: ADME, microsome. A general note: Liver microsomes are a subcellular fraction often used to study metabolism.
Data set [13] can be described thus: Apparent permeability from apical to basolateral side in human Caco2 cells assessed as drug recovery at 5 uM after 1 hr by LC-MS/MS analysis. Type of data set: ADME, cell-based. The conditions noted are these: Caco-2, read-out: Drug recovery.
Data set [14] can be described thus: Apparent permeability from apical to basolateral side in human Caco2 cells at 5 uM after 1 hr by LC-MS/MS analysis. Type of data set: ADME, cell-based. As to conditions: Caco-2.
A short description of data set [15]: Apparent permeability from basolateral to apical side in human Caco2 cells at 5 uM after 1 hr by LC-MS/MS analysis. Type of data set: ADME, cell-based. As to conditions: Caco-2.
A short description of data set [16]: Apparent permeability from basolateral to apical side in human Caco2 cells assessed as drug recovery at 5 uM after 1 hr by LC-MS/MS analysis. Type of data set: ADME, cell-based. As to conditions: Caco-2, read-out: Drug recovery.

Converted amounts (≈) assume the structure as drawn.

As usually defined, the half-life is the time in which the quantity being followed falls by half. Broadly, the AUC is concentration integrated over time. The low end stands for less exposure, the high end for more exposure. In general, Cmax refers to the peak of the concentration-time curve. By Papp B→A is commonly meant how fast a substance crosses the layer from the basolateral side. What is called Tmax is the time from dosing to the highest level. By logD is commonly meant lipophilicity at a set pH, counting ionised and neutral species. The low end stands for a more hydrophilic compound, the high end for a more lipophilic compound. As usually defined, the solubility is the concentration that dissolves in the medium under given conditions. Read a low solubility as little dissolved substance. By Papp A→B is commonly meant how fast a substance crosses the layer from the apical side.

`COc1ccc(N(C)c2cnc(SCc3c(F)cc(OCCCS(=O)(=O)O)cc3F)n2-c2ccc(F)cc2)cc1OC.N` gave a half-life in data set [1] of 317 min. The same compound showed an area under the curve (AUC) in data set [2] of 96.2 ng·h/mL. The Drug uptake result in the data set on Colon and with Ileum was “Active” each time. For the same compound, the Cmax was 11000 nM in data set [3], 385 nM in [5] and 102 nM in [9]. Also, the recovery at 1 h, 10 µM in data set [4] came to 80.1%; in [10] it was 102%. In [6], the basolateral-to-apical permeability (Papp B→A) at 1 h, 10 µM amounted to 19 ×10⁻⁶ cm/s. In addition, the dose excreted at 24 h in the data set “in vivo” amounted to 100%. Moreover, the Tmax in data set [7] is 45 min. The compound further registered a pH-dependent lipophilicity (logD) at 2 h in [8] of 0.8. In “physchem”, the solubility at 24 h was above 200 µM. Also, the apparent permeability from apical to basolateral (Papp A→B) at 1 h, 10 µM in data set [11] came out at 0.031 ×10⁻⁶ cm/s. For the same compound, in data set [12], the half-life at 1 µM came to 1.2 min.

As to `COc1ccc(N(C)c2cnc(SCc3c(F)cc(OCCC[N+]45CCN(CC4)CC5)cc3F)n2-c2ccc(F)cc2)cc1OC.O=C[O-]`, the recovery at 1 h, 10 µM turned out to be 69.3% in [4] and 99.6% in data set [10]. Also, in data set [6], the apparent permeability from basolateral to apical (Papp B→A) at 1 h, 10 µM amounted to 0.22 ×10⁻⁶ cm/s. Further, the logD at 2 h in data set [8] was determined as 0.9. Further, the Papp A→B at 1 h, 10 µM in [11] amounted to 0.016 ×10⁻⁶ cm/s.

With `COc1ccc(N(C)c2cnc(SCc3c(F)cccc3F)n2-c2ccc(F)cc2)cc1OC`, the log distribution coefficient (logD) at 2 h in [8] worked out at 3.5. This compound also registered a solubility at 24 h in the data set “physchem” of 6.3 µM (≈ 3.06 µg/mL). In addition, the recovery at 1 h, 5 µM in data set [13] turned out to be 84.4%; in data set [16], 106%. Further, in [14], the Papp A→B at 1 h, 5 µM was determined as 5.32 ×10⁻⁶ cm/s. Besides, in data set [15], the basolateral-to-apical permeability (Papp B→A) at 1 h, 5 µM is 5.47 ×10⁻⁶ cm/s. In addition, the half-life at 1 µM in data set [12] is 0.7 min.

For the compound `COc1ccc(N(C)c2cnc(SCc3c(F)cc(C#CC[N+](C)(C)C)cc3F)n2-c2ccc(F)cc2)cc1OC.[I-]`, in data set [6], the basolateral-to-apical permeability (Papp B→A) at 1 h, 10 µM is 0.24 ×10⁻⁶ cm/s. Also, the apical-to-basolateral permeability (Papp A→B) at 1 h, 10 µM in data set [11] was 0.08 ×10⁻⁶ cm/s.

`COc1ccc(N(C)c2cnc(SCc3c(F)cc(C#CC[N+](C)(C)C)cc3F)n2-c2ccc(F)cc2)cc1OC.O=C[O-]`: the half-life in data set [1] amounted to 97 min. Moreover, in [2], the AUC was 48.5 ng·h/mL. Also, the Cmax in [3] is 9030 nM; in data set [9] it was 100 nM. Moreover, the recovery at 1 h, 10 µM in [4] amounted to 69.8%; in data set [10], 93.4%. In addition, in the data set “in vivo”, the dose excreted at 24 h is 88%. Moreover, in [7], the time of peak concentration (Tmax) is 15 min. For the same compound, the logD at 2 h in [8] stood at 1.
